{"source": "PubChem BioAssay (NCI)", "test_in_all_cases": "NCI tumour cell line growth inhibition, 48 h", "key": {"[1]": {"system": "LOX IMVI melanoma"}, "[2]": {"system": "SNB-75 CNS"}, "[3]": {"system": "MDA-MB-231 breast"}, "[4]": {"system": "HCC-2998 colon"}, "[5]": {"system": "SK-MEL-2 melanoma"}, "[6]": {"system": "OVCAR-3 ovarian"}, "[7]": {"system": "NCI/ADR-RES ovarian"}, "[8]": {"system": "NCI-H460 lung"}, "[9]": {"system": "M14 melanoma"}, "[10]": {"system": "SN12C renal"}, "[11]": {"system": "HT29 colon"}, "[12]": {"system": "CCRF-CEM leukemia"}, "[13]": {"system": "UO-31 renal"}, "[14]": {"system": "SF-539 CNS"}, "[15]": {"system": "SF-295 CNS"}, "[16]": {"system": "SR leukemia"}, "[17]": {"system": "CAKI-1 renal"}, "[18]": {"system": "OVCAR-8 ovarian"}, "[19]": {"system": "HOP-62 NSCLC"}, "[20]": {"system": "OVCAR-4 ovarian"}, "[21]": {"system": "IGROV1 ovarian"}, "[22]": {"system": "A549 NSCLC"}, "[23]": {"system": "HCT-116 colon"}, "[24]": {"system": "MCF7 breast"}, "[25]": {"system": "RXF 393 renal"}, "[26]": {"system": "HS 578T breast"}}, "note": "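Each compound was tested at five concentrations against cells in 96-well plates for 48 hours. GI50 = concentration required for 50% inhibition of growth. TGI denotes the concentration required for complete inhibition of growth.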"}
{"smiles": "CC(C)(C)CC(C)(C)N(CSc1ccc(Cl)cc1)CSc1ccc(Cl)cc1", "values": [{"measurement": "GI50", "setting": "[1]", "result": 337, "unit": "nM"}, {"measurement": "TGI", "setting": "[1]", "result": 1060, "unit": "nM"}, {"measurement": "GI50", "setting": "[2]", "result": 1130, "unit": "nM"}, {"measurement": "TGI", "setting": "[2]", "result": 5680, "unit": "nM"}, {"measurement": "GI50", "setting": "[3]", "result": 486, "unit": "nM"}, {"measurement": "TGI", "setting": "[3]", "result": 2200, "unit": "nM"}, {"measurement": "GI50", "setting": "[4]", "result": 4620, "unit": "nM"}, {"measurement": "TGI", "setting": "[4]", "result": 16400, "unit": "nM"}, {"measurement": "GI50", "setting": "[5]", "result": 2540, "unit": "nM"}, {"measurement": "TGI", "setting": "[5]", "result": 6280, "unit": "nM"}, {"measurement": "GI50", "setting": "[6]", "result": 1780, "unit": "nM"}, {"measurement": "TGI", "setting": "[6]", "result": 4250, "unit": "nM"}, {"measurement": "GI50", "setting": "[7]", "result": 2420, "unit": "nM"}, {"measurement": "TGI", "setting": "[7]", "result": "> 100000", "unit": "nM"}, {"measurement": "GI50", "setting": "[8]", "result": 829, "unit": "nM"}, {"measurement": "TGI", "setting": "[8]", "result": 8380, "unit": "nM"}, {"measurement": "GI50", "setting": "[9]", "result": 1920, "unit": "nM"}, {"measurement": "TGI", "setting": "[9]", "result": 5910, "unit": "nM"}, {"measurement": "GI50", "setting": "[10]", "result": 506, "unit": "nM"}, {"measurement": "TGI", "setting": "[10]", "result": 3450, "unit": "nM"}, {"measurement": "GI50", "setting": "[11]", "result": 2830, "unit": "nM"}, {"measurement": "TGI", "setting": "[11]", "result": 9180, "unit": "nM"}, {"measurement": "GI50", "setting": "[12]", "result": 366, "unit": "nM"}, {"measurement": "TGI", "setting": "[12]", "result": 3380, "unit": "nM"}, {"measurement": "GI50", "setting": "[13]", "result": 489, "unit": "nM"}, {"measurement": "TGI", "setting": "[13]", "result": 1930, "unit": "nM"}, {"measurement": "GI50", "setting": "[14]", "result": 1230, "unit": "nM"}, {"measurement": "TGI", "setting": "[14]", "result": 2560, "unit": "nM"}, {"measurement": "GI50", "setting": "[15]", "result": 316, "unit": "nM"}, {"measurement": "TGI", "setting": "[15]", "result": 1330, "unit": "nM"}, {"measurement": "GI50", "setting": "[16]", "result": 1230, "unit": "nM"}, {"measurement": "TGI", "setting": "[16]", "result": 5510, "unit": "nM"}, {"measurement": "GI50", "setting": "[17]", "result": 1780, "unit": "nM"}, {"measurement": "TGI", "setting": "[17]", "result": 4550, "unit": "nM"}, {"measurement": "GI50", "setting": "[18]", "result": 1740, "unit": "nM"}, {"measurement": "TGI", "setting": "[18]", "result": 7570, "unit": "nM"}, {"measurement": "GI50", "setting": "[19]", "result": 570, "unit": "nM"}, {"measurement": "TGI", "setting": "[19]", "result": 10800, "unit": "nM"}, {"measurement": "GI50", "setting": "[20]", "result": 1740, "unit": "nM"}, {"measurement": "TGI", "setting": "[20]", "result": 9880, "unit": "nM"}, {"measurement": "GI50", "setting": "[21]", "result": 745, "unit": "nM"}, {"measurement": "TGI", "setting": "[21]", "result": 2700, "unit": "nM"}, {"measurement": "GI50", "setting": "[22]", "result": 452, "unit": "nM"}, {"measurement": "TGI", "setting": "[22]", "result": 7700, "unit": "nM"}, {"measurement": "GI50", "setting": "[23]", "result": 1420, "unit": "nM"}, {"measurement": "TGI", "setting": "[23]", "result": 5850, "unit": "nM"}, {"measurement": "GI50", "setting": "[24]", "result": 2200, "unit": "nM"}, {"measurement": "TGI", "setting": "[24]", "result": 10200, "unit": "nM"}, {"measurement": "GI50", "setting": "[25]", "result": 1870, "unit": "nM"}, {"measurement": "TGI", "setting": "[25]", "result": 7060, "unit": "nM"}, {"measurement": "GI50", "setting": "[26]", "result": 1720, "unit": "nM"}]}
